{"source": "paper PMC3699191", "about": "(Journal of medicinal chemistry, 2010)", "molecular_target": "mCB2 (membranes from HEK293 cells expressing mouse CB2) (Mus musculus, UniProt P47936)", "sequence (P47936 whole entry)": "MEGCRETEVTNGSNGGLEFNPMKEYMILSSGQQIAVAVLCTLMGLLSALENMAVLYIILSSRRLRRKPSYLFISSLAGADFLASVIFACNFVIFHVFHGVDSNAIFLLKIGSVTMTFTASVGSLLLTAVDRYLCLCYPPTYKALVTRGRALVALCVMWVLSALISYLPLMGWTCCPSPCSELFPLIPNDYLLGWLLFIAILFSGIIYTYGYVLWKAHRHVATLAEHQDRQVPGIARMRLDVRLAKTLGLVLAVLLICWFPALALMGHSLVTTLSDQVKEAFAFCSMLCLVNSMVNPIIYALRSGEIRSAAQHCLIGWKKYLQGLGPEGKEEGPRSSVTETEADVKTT", "assay": "Mouse CB2 binding assay, [3H]CP-55,940 competition", "conditions": "CB2 over CB1"}
{"smiles": "CC1(C)Oc2cc(C34CC5CC(CC(C5)O3)C4)cc(O)c2[C@@H]2C[C@H](O)CC[C@H]21", "note": "[compound 16]", "values": [{"measurement": "selectivity for CB2", "result": 2, "unit": "fold"}]}
